PubChem BioAssay (NCI)
Several values for one entry are separate records, joined by “and”; a condition that tells them apart may be missing. Identical values can stand only once.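 Tested at 5 concentrations; 48 h exposure; 96-well plates; endpoints linearly interpolated, else capped at highest concentration. Abbreviation: GI50, concentration required for 50% inhibition of growth. TGI is the concentration that stops growth completely.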

Experiments:
Assay in all cases: NCI-60 cell line screen, 48 h
[1] = test system: ACHN renal
[2] = test system: MDA-N
[3] = test system: CCRF-CEM leukemia
[4] = test system: SK-MEL-5 melanoma
[5] = test system: EKVX NSCLC
[6] = test system: SF-539 CNS
[7] = test system: MALME-3M melanoma
[8] = test system: A549 NSCLC
[9] = test system: 786-0 renal
[10] = test system: NCI-H522 lung
[11] = test system: SF-268 CNS
[12] = test system: KM12 colon

SMILES | TGI [1] | TGI [2] | TGI [3] | TGI [4] | TGI [5] | TGI [6] | TGI [7] | TGI [8] | TGI [9] | TGI [10] | TGI [11] | TGI [12] | GI50 [1] | GI50 [6] | GI50 [10] | GI50 [11]
Clc1nc(Nc2nc3ccccc3[nH]2)nc(Cl)c1-c1ccccc1 | 34.7 µM | 23.7 µM | 66.5 µM | 53.5 µM | 71.4 µM | 34.6 µM | 38.6 µM | > 100 µM | 34.6 µM | 42.5 µM | > 100 µM | > 100 µM | – | – | – | –
Cc1cc(=O)n2nc(CSc3n[nH]c(=S)s3)sc2n1 | > 100 µM | > 100 µM | > 100 µM | > 100 µM | > 100 µM | > 100 µM | > 100 µM | > 100 µM | > 100 µM | > 100 µM | > 100 µM | > 100 µM | – | – | – | –
O=C1NC(N2CCCCC2)=N/C1=C\c1ccccc1 | > 100 µM | > 100 µM | > 100 µM | – | > 100 µM | > 100 µM | > 100 µM | > 100 µM | > 100 µM | > 100 µM | > 100 µM | > 100 µM | – | – | – | –
Brc1ccc(C2CC3(c4ccccc4)ON=C(c4ccccc4)N3c3ccccc3S2)cc1 (centres undefined) | > 100 µM | > 100 µM | > 100 µM | > 100 µM | > 100 µM | > 100 µM | > 100 µM | > 100 µM | > 100 µM | > 100 µM | > 100 µM | > 100 µM | – | – | – | –
CC1(C)CN=C(Nc2ccc(F)c(Cl)c2)S1 | > 100 µM | > 100 µM | > 100 µM | > 100 µM | > 100 µM | > 100 µM | > 100 µM | > 100 µM | > 100 µM | > 100 µM | > 100 µM | > 100 µM | – | – | – | –
COc1ccc(NC(=O)CC(=O)N2N=C(C)C(N=Nc3ccc(C(=O)O)cc3)C2=O)cc1 (centres undefined) | > 100 µM | > 100 µM | > 100 µM | > 100 µM | > 100 µM | > 100 µM | > 100 µM | > 100 µM | > 100 µM | > 100 µM | > 100 µM | > 100 µM | – | – | – | –
N#CC1=C(S)N(C2OC(CO)C(O)C(O)C2O)C(c2ccccc2)=CC1c1cccs1 (centres undefined) | 40.8 µM | 30.9 µM | > 100 µM | 31 µM | – | 38.7 µM | 38.7 µM | 45.6 µM | 35.7 µM | 47.5 µM | 63.8 µM | 34.7 µM | – | – | – | –
FC(F)(F)C1(c2ccccc2)SCc2nc3ccccc3n21 (centres undefined) | > 100 µM | > 100 µM | > 100 µM | > 100 µM | > 100 µM | > 100 µM | > 100 µM | > 100 µM | > 100 µM | > 100 µM | > 100 µM | > 100 µM | – | – | – | –
Cc1ccc(NC(=S)N=Nc2c(O)[nH]c3ccccc23)cc1 | > 100 µM | > 100 µM | > 100 µM | > 100 µM | > 100 µM | > 100 µM | > 100 µM | > 100 µM | > 100 µM | > 100 µM | > 100 µM | > 100 µM | – | – | – | –
COC(=O)C1(Cc2ccc(C)cc2)Cc2c(C)cccc2C1=O (centres undefined) | 76.9 µM | 14.4 µM | > 100 µM | 26.3 µM | > 100 µM | 34.5 µM | 30.8 µM | 54.5 µM | 76.8 µM | 42.1 µM | > 100 µM | 39.5 µM | – | – | – | –
COc1cc(C(=O)N(C(=S)OC23CC4CC(CC(C4)C2)C3)c2ccccc2)cc(OC)c1OC | > 100 µM | 85.8 µM | 36 µM | 32.9 µM | 48.1 µM | > 100 µM | 82.1 µM | > 100 µM | > 100 µM | 25.9 µM | > 100 µM | > 100 µM | – | – | – | –
O=C1CSC(c2cccc(Oc3ccccc3)c2)N1c1cccc(Cl)c1Cl (centres undefined) | 47.9 µM | 58.7 µM | > 100 µM | 50 µM | 99.3 µM | 58.3 µM | 82.9 µM | > 100 µM | 87.7 µM | 61.1 µM | 60 µM | > 100 µM | – | – | – | –
COc1ccc2[nH]c3c(C)c4ncccc4c(C)c3c2c1 | > 10 µM | > 10 µM | > 10 µM | > 10 µM | > 10 µM | > 10 µM | 3.42 µM | 4.88 µM | 2.85 µM | > 10 µM | > 10 µM | 3.87 µM | – | – | – | –
O=C(c1cccc2cc(O)ccc12)c1cn(CCN2CCOCC2)c2ccccc12 | > 100 µM | 58.3 µM | 34.4 µM | 55.3 µM | 64.8 µM | > 100 µM | 56.3 µM | – | 42.3 µM | 61.4 µM | > 100 µM | – | – | – | – | –
O=P(O)(O)CC1OC(CO)C(O)C1O (centres undefined) | > 100 µM | > 100 µM | > 100 µM | > 100 µM | > 100 µM | > 100 µM | > 100 µM | > 100 µM | > 100 µM | > 100 µM | > 100 µM | > 100 µM | – | – | – | –
COc1ccc(-c2nc(SC)n(C3OC(COC(C)=O)C(OC(C)=O)C(OC(C)=O)C3OC(C)=O)c(=O)c2C#N)cc1 (centres undefined) | > 100 µM | > 100 µM | > 100 µM | > 100 µM | > 100 µM | 81.9 µM and > 100 µM | > 100 µM | > 100 µM | > 100 µM | 72.7 µM and > 100 µM | > 100 µM | > 100 µM | 35.8 µM and > 100 µM | 31.3 µM and > 100 µM | 18.7 µM and > 100 µM | 21.8 µM and 76.4 µM
C=C(C1=CC(=O)C(C)(C)O1)[C@@H]1CC=C([C@@H]2CC[C@H]3[C@@]2(C)CC[C@H]2C(C)(C)C(=O)[C@H](OC(=O)CC(C)(O)CC(=O)O)C[C@]32C)[C@H](O)O1 (some centres undefined) | 25.4 µM | 30.5 µM | 6.12 µM | 24.4 µM | 29.8 µM | 24.7 µM | 28 µM | 40.3 µM | 24.4 µM | 25.4 µM | 24.4 µM | 29.7 µM | – | – | – | –
